Assay results from patent US10993983B2, “Cyclic peptide epitopes and small-molecule mimics for inducing autophagy” (TRUSTEES OF TUFTS COLLEGE, priority 2016, dated 2021).
Entries after “also recorded” stand apart in the source; their conditions may differ. Bridges are numbered along the chain shown (N, C = ends). Where no end group is shown, it is not given here. [ ]: non-standard residue; d: D form. The star is where a group is joined. cyanopropanyl = 3-cyanopropanyl N-terminal cap, N#CCCC*; Nicotinoyl = O=C(c1cccnc1)*; Hexanoyl = CCCCCC(=O)*; PhAc = O=C(Cc1ccccc1)*; Bz = O=C(c1ccccc1)*; Allyl = C=CC*

Test system: HeLa cells
Assay: Autophagy induction judged by p62 and LC3 immunoblots together
Assay type: cell-based
Design: key to Activity compared to wild-type WT / Activity (μM) 10, single symbol / Activity (μM) 30, single symbol / Activity (μM) 50, single symbol / Activity (μM) 100, single symbol: −: activity not reported; 0: decreased vs. WT; +: similar to WT; ++: modest increase vs. WT; +++: significant increase vs. WT
Details: for concentration at which autophagy induction (p62 degradation and LC3 lipidation) was observed: immunoblot, 3 hour treatment; for Activity compared to wild-type WT: Tat-linked linear peptides, summation of p62 degradation assay and LC3 marker assay
Description: This 10-mer sequence was substituted with various thiol-containing amino acids at various positions, and then cross-linked with various linkers as described above (FIG. 5, a and FIG. 6).
Cells were treated with peptide in OPTI-MEM (Thermo Scientific) acidified with 0.15% (v/v) 6N HCl for 3 hour. Cells were rinsed with Dulbecco's phosphate buffered saline (PBS) and lysed in lysis buffer (20 mM HEPES, 150 mM NaCl, 1 mM EDTA, 1% Triton X-100, protease inhibitor cocktail (Roche) on ice for 1 hour. Cell lysates were centrifuged at 16,000 g for 10 min at 4° C. and analyzed by SDS-PAGE and transferred to PVDF membranes. The membranes were blocked 5% non-fat dry milk (NFDM) in PBST (PBS+0.05% Tween-20) for 1 hour, then incubated overnight at 4° C. with primary antibody in 5% NFDM in PBST. The blots were washed with PBST and incubated with HRP-conjugated secondary antibodies diluted in 5% NFDM in PBST for 1 hour at room temperature. Membranes were washed with PBST and visualized with SuperSignal West Pico Chemiluminescent Substrate (Thermo Scientific). Semi-quantitative results were obtained by noting the lowest concentration at which both p62 degradation and LC3-I to LC3-II conversion were observed.
(SEQ ID NO: 16)-Sequence. […] The N-terminus was capped with an acetyl group while the C terminus was capped with a —C(O)—NH2 group. The activity reported is a summation of results from both the p62 degradation assay and the LC3 marker assay.

[1] = HeLa cells, p62 and LC3 immunoblots

| Substance | autophagy induction, result in words [1] | concentration at which autophagy induction (p62 degradation and LC3 lipidation) was observed (HeLa cells) | also measured |
| --- | --- | --- | --- |
| (acetyl)-VcNAcFHIWH (Ac-V[dC]NA[dC]FHIWH; linker 2-5 via ortho‑xylene (inferred); not fully specified (C-terminus); printed as (acetyl)-VcNAcFHIWH) [Ac-DD5-o] | almost no autophagy-inducing activity |  |  |
| (benzo)-VcNAcFHIWH (Bz-V[dC]NA[dC]FHIWH; linker 2-5 via ortho‑xylene (inferred); not fully specified (C-terminus); printed as (benzo)-VcNAcFHIWH) [benzo-DD5-o] | induced autophagy to a slightly lesser extent than DD5-o | 50 µM |  |
| (cyano)-VcNAcFHIWH (cyanopropanyl-V[dC]NA[dC]FHIWH; linker 2-5 via ortho‑xylene (inferred); not fully specified (C-terminus); printed as (cyano)-VcNAcFHIWH) [cyano-DD5-o] | induced autophagy, but to a somewhat lesser extent than DD5-o |  |  |
| (free amine)-VcNAcFHIWH (H-V[dC]NA[dC]FHIWH; linker 2-5 via ortho‑xylene (inferred); not fully specified (C-terminus); printed as VcNAcFHIWH) [Compound H2N-DD5-o] | almost no autophagy-inducing activity |  |  |
| (hexano)-VcNAcFHIWH (Hexanoyl-V[dC]NA[dC]FHIWH; linker 2-5 via ortho‑xylene (inferred); not fully specified (C-terminus); printed as (hexano)-VcNAcFHIWH) [hexano-DD5-o] | induced autophagy, but to a somewhat lesser extent than DD5-o | 50 µM |  |
| (hexyno)-VcNAcFHIWH (hexynoyl-V[dC]NA[dC]FHIWH; linker 2-5 via ortho‑xylene (inferred); not fully specified (C-terminus); printed as (hexyno)-VcNAcFHIWH) [hexyno-DD5-o] | induced autophagy, but to a somewhat lesser extent than DD5-o |  |  |
| (nicot)-VcNAcFHIWH (Nicotinoyl-V[dC]NA[dC]FHIWH; linker 2-5 via ortho‑xylene (inferred); not fully specified (C-terminus); printed as (nicot)-VcNAcFHIWH) [nicot-DD5-o] |  |  | autophagy induction, result in words (HeLa cells, p62 and LC3 immunoblots, listed as nicotinic acid cap): showed no activity; also recorded: no activity was observed |
| (pa)-AcNAcFHIWH (pa-A[dC]NA[dC]FHIWH; linker 2-5 via ortho‑xylene (inferred)) [Val1Ala] | complete loss in activity |  | autophagy induction, result in words (HeLa cells, p62 and LC3 immunoblots, listed as Vail): complete loss of activity |
| (pa)-VCNAcFHIWH (pa-VCNA[dC]FHIWH; linker 2-5 via ortho‑xylene (inferred)) [LD5-o] | mildly increased autophagy |  |  |
| (pa)-VWNATFHIWH (not fully specified (N-terminus, C-terminus); printed as (pa)-VWNATFHIWH) [pa-10mer, no linker] | barely detectable activity | 100 µM |  |
| (pa)-VWNATFHIWHD (not fully specified (N-terminus, C-terminus); printed as (pa)-VWNATFHIWHD) [pa-11mer, no linker] | did not increase autophagic activity; also recorded: loss of activity |  |  |
| (pa)-VcAAcFHIWH (pa-V[dC]AA[dC]FHIWH; linker 2-5 via ortho‑xylene (inferred)) [Asn3Ala] | milder effects on activity |  |  |
| (pa)-VcNACFHIWH (pa-V[dC]NACFHIWH; linker 2-5 via ortho‑xylene (inferred)) [DL5-o] | mildly increased autophagy |  |  |
| (pa)-VcNATcHIWH (pa-V[dC]NAT[dC]HIWH; linker 2-6 via meta‑xylene (inferred)) [DD6-m] | capable of inducing autophagy | 100 µM |  |
| (pa)-VcNAcAHIWH (pa-V[dC]NA[dC]AHIWH; linker 2-5 via ortho‑xylene (inferred)) [Phe6Ala] | complete loss of activity; also recorded: complete loss in activity |  |  |
| (pa)-VcNAcFAIWH (pa-V[dC]NA[dC]FAIWH; linker 2-5 via ortho‑xylene (inferred)) [His7Ala] | milder effects on activity |  |  |
| (pa)-VcNAcFHAWH (pa-V[dC]NA[dC]FHAWH; linker 2-5 via ortho‑xylene (inferred)) [Ile8Ala] | complete loss of activity; also recorded: complete loss in activity |  |  |
| (pa)-VcNAcFHIAH (pa-V[dC]NA[dC]FHIAH; linker 2-5 via ortho‑xylene (inferred)) [Trp9Ala] | significantly decreased activity | 100 µM |  |
| (pa)-VcNAcFHIWA (pa-V[dC]NA[dC]FHIWA; linker 2-5 via ortho‑xylene (inferred)) [His10Ala] | significantly decreased activity | 100 µM | activity relative to DD5-o (fold worse) [1]: 5 fold |
| (pa)-VcNAcFHIWH [DD5-allyl] (pentynoyl-V[dC](Allyl)NA[dC](Allyl)FHIWH; not fully specified (C-terminus); printed as (pa)-VcNAcFHIWH [DD5-allyl]) [allyl, unstapled] | did not induce autophagy |  |  |
| (pa)-VcNAcFHIWH [DD5-m] (pa-V[dC]NA[dC]FHIWH; linker 2-5 via meta‑xylene (inferred)) | did not induce autophagy |  |  |
| (pa)-VcNAcFHIWH [LL5-o] (VCNACFHIWH; not fully specified (residues 2, 5, N-terminus, bridges); printed as (pa)-VcNAcFHIWH; cysteine pairing not given here) [ortho-xylene linker; stereoisomer with two L-cysteines, negative control] | no autophagy-inducing activity | 100 µM |  |
| (pentene)-VcNAcFHIWH [pentene-DD5-o] | induced autophagy, but to a somewhat lesser extent than DD5-o | 50 µM |  |
| (phenyl)-VcNAcFHIWH (PhAc-V[dC]NA[dC]FHIWH; linker 2-5 via ortho‑xylene (inferred); not fully specified (C-terminus); printed as (phenyl)-VcNAcFHIWH) [phenyl-DD5-o] | showed no activity |  |  |
| CFNATFEIWHD [Compound T1, Tat-linked linear peptide] |  |  | Activity compared to wild-type WT: + |
| DFNATFEIWHD [Compound T23, Tat-linked linear peptide] |  |  | Activity compared to wild-type WT: 0 |
